Values quoted from earlier work as cited in patent publication US8895055B2, “Telodendrimer nanodiscs without apolipoprotein” (The Regents of the University of California, priority 2011, dated 2014).

Question: Which solubility in water does the source give for `C[C@@H]1[C@H](O)[C@@H](C)/C=C/C=C/C=C/C=C/C=C/C=C/C=C/[C@H](O[C@@H]2O[C@H](C)[C@@H](O)[C@H](N)[C@@H]2O)C[C@@H]2O[C@](O)(C[C@@H](O)C[C@@H](O)[C@H](O)CC[C@@H](O)C[C@@H](O)CC(=O)O[C@H]1C)C[C@H](O)[C@H]2C(=O)O` [Amphotericin B] here?
Answer: Its solubility in water is “poorly soluble in water”.
